Data from publication PMC12262901, “Natural product-mediated reaction hijacking mechanism validates Plasmodium aspartyl-tRNA synthetase as an antimalarial drug target” (PLOS Pathogens, 2025).

Legend:
[1] = biological target: native length PvAspRS (51-631), Plasmodium vivax aspartyl tRNA synthetase (P. vivax); assay: SEC; gel filtration after removal of the His-tags; 25 mM or 50 mM Tris-HCl pH 8.0, 150 mM NaCl, 0.5 or 1 mM TCEP
[2] = biological target: T1, truncated PvAspRS (96-631) (Plasmodium vivax, UniProt A5K9Y2); assay: X-ray crystal structure, […] Å; format: binding; details: active site of catalytic domain, both chains; possible radiation damage at the 2-Cl
T1 construct: gene PVX_081610; residues 96-631, lacks N-terminal extension, pETM-41 vector, expressed in E. coli BL21(DE3), tag removed with TEV protease, homodimer
T1 sequence (A5K9Y2 96-631): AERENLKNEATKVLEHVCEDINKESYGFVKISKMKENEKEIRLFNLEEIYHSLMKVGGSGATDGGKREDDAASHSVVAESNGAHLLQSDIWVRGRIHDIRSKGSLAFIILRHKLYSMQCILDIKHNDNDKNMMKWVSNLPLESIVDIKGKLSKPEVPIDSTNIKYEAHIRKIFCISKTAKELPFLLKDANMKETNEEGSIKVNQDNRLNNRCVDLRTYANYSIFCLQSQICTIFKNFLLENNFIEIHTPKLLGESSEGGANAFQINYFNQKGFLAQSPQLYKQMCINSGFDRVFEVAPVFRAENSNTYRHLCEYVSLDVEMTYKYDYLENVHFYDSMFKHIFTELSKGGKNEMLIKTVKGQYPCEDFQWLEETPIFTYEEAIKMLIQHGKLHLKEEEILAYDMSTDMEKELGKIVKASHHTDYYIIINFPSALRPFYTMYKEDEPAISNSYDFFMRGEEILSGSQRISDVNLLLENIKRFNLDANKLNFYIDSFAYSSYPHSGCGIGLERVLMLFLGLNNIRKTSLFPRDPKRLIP

HsAspRS (1-501) [3] = biological target: T2, HsAspRS (1-501) (Homo sapiens, UniProt P14868); assay: differential scanning fluorimetry; format: binding; details: 2 or 5 µM synthetic Asp-DACM, pH 8, 37 °C, 3 h
T2 construct: gene DARS1; full-length 1-501, codon-optimised, expressed in E. coli BL21(DE3), His-tag removed with TEV protease, homodimer
T2 sequence (P14868 1-501): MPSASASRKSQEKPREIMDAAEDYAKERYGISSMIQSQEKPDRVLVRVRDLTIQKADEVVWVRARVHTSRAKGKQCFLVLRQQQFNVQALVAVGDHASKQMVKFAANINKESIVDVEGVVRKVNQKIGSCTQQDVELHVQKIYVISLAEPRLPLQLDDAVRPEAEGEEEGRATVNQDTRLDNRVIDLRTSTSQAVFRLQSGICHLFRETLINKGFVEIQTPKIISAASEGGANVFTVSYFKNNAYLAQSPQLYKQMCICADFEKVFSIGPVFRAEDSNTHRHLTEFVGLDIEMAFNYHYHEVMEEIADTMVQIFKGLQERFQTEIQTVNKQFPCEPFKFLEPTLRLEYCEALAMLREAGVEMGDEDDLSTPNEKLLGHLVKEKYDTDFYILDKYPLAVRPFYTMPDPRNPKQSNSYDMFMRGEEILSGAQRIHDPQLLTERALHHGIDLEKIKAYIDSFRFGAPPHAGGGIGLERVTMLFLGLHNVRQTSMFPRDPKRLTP

[4] = biological target: T3, native length PfAspRS (49-626) (Plasmodium falciparum, UniProt Q8I2B1); assay: differential scanning fluorimetry; format: binding; details: 2 or 5 µM synthetic Asp-DACM, pH 8, 37 °C, 3 h
T3 construct: gene PF3D7_0102900; residues 49-626, cytoplasmic, codon-optimised, expressed in E. coli BL21(DE3), N-terminal His-tag removed with TEV protease, homodimer; observed mass 67831 Da
T3 sequence (Q8I2B1 49-626): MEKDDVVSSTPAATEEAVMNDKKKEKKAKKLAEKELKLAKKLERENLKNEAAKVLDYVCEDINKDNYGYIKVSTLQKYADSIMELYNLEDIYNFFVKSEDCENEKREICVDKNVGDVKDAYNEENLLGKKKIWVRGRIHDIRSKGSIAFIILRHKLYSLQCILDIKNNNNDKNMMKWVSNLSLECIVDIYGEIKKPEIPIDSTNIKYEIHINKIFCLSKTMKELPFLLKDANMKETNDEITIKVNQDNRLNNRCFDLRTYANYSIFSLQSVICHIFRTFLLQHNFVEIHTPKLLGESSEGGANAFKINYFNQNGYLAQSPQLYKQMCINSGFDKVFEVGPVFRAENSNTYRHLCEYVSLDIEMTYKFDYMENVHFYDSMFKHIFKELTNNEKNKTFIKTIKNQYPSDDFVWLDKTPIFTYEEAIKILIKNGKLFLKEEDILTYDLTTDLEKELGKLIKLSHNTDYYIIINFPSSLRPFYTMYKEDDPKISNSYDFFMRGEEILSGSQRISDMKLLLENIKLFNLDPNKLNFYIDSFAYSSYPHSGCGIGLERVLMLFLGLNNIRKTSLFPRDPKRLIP

[5] = biological target: T4, native length PvAspRS (51-631) (Plasmodium vivax, UniProt A5K9Y2); assay: differential scanning fluorimetry; format: binding; details: 2 or 5 µM synthetic Asp-DACM, pH 8, 37 °C, 3 h
T4 construct: gene PVX_081610; residues 51-631, codon-optimised, expressed in E. coli BL21(DE3), N-terminal His-tag removed with TEV protease, homodimer
T4 sequence (A5K9Y2 51-631): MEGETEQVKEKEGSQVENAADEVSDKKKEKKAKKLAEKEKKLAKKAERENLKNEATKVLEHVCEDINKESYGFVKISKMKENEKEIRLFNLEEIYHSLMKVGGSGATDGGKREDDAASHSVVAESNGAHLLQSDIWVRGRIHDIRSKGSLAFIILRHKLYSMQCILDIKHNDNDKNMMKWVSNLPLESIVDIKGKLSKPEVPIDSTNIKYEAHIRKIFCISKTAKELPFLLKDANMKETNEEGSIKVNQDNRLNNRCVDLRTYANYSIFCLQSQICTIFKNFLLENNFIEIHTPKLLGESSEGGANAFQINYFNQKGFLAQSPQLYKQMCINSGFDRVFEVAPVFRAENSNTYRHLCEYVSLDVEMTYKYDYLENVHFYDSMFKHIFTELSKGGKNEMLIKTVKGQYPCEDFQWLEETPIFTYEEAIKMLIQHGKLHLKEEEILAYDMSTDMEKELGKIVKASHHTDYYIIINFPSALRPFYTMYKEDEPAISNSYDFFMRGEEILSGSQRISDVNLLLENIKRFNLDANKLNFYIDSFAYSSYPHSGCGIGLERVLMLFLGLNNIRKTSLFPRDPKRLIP

[6] = biological target: T3, native length PfAspRS (49-626); assay: differential scanning fluorimetry after […] h incubation with substrates; format: binding; details: AMS (10 or 50 µM) with 10 µM ATP, 20 µM L-Asp, 80 µM E. coli tRNA, 5 mM MgCl2, pH 8, 37 °C; reaction hijacking, covalent Asp-AMS adduct made by the enzyme; value is the Tm, not the shift
[7] = biological target: T4, native length PvAspRS (51-631); assay: as above; format: binding; details: AMS (10 or 50 µM) with 10 µM ATP, 20 µM L-Asp, 80 µM E. coli tRNA, 5 mM MgCl2, pH 8, 37 °C; reaction hijacking, covalent Asp-AMS adduct made by the enzyme; value is the Tm, not the shift
[8] = biological target: T3, native length PfAspRS (49-626); assay: Kinase-Glo ATP consumption assay; format: biochemical; details: 10 µM ATP, 200 µM L-Asp, 80 µM E. coli tRNA, 5 mM MgCl2, pyrophosphatase, pH 8, 37 °C
[9] = biological target: T1, truncated PvAspRS (96-631); assay: Kinase-Glo ATP consumption assay; format: biochemical; details: 10 µM ATP, 200 µM L-Asp, 80 µM E. coli tRNA, 5 mM MgCl2, pyrophosphatase, pH 8, 37 °C
HsAspRS (1-501) [10] = biological target: T2, HsAspRS (1-501); assay: Kinase-Glo ATP consumption assay; format: biochemical; details: 10 µM ATP, 200 µM L-Asp, 160 µM E. coli tRNA, 5 mM MgCl2, pyrophosphatase, pH 8, 37 °C
[11] = biological target: T4, native length PvAspRS (51-631); assay: Kinase-Glo ATP consumption assay; format: biochemical; details: 10 µM ATP, 200 µM L-Asp, 80 µM E. coli tRNA, 5 mM MgCl2, pyrophosphatase, pH 8, 37 °C
[12] = biological target: native length PfAspRS (49-626), Plasmodium falciparum cytoplasmic aspartyl tRNA synthetase (P. falciparum); assay: SEC; gel filtration after removal of the His-tags; 25 mM or 50 mM Tris-HCl pH 8.0, 150 mM NaCl, 0.5 or 1 mM TCEP
[13] = biological target: native length PfAspRS (49-626), Plasmodium falciparum cytoplasmic aspartyl tRNA synthetase (P. falciparum); assay: AUC; sedimentation velocity, c(s) model; PfAspRS at 1, 0.6 and 0.2 mg/mL in 50 mM Tris pH 8.0, 150 mM NaCl, 1 mM TCEP; 200,000 g, 20°C, absorbance at 290 nm
[14] = biological target: T1, truncated PvAspRS (96-631); assay: X-ray crystal structure, […] Å; format: binding; details: active site, both chains; crystallised with ATP and L-Asp
[15] = biological target: T1, truncated PvAspRS (96-631); assay: X-ray crystal structure, […] Å; format: binding; details: active site, both chains; Mg2+ in chain B
[16] = biological target: T4, native length PvAspRS (51-631); assay: differential scanning fluorimetry after […] h incubation with substrates; format: binding; details: read-out: dTm
[17] = biological target: T5, full-length HsAspRS (1-501), human aspartyl tRNA synthetase (human), P14868; assay: SEC; gel filtration after removal of the His-tags; 25 mM or 50 mM Tris-HCl pH 8.0, 150 mM NaCl, 0.5 or 1 mM TCEP; details: remark: other sources report otherwise
T5 chain: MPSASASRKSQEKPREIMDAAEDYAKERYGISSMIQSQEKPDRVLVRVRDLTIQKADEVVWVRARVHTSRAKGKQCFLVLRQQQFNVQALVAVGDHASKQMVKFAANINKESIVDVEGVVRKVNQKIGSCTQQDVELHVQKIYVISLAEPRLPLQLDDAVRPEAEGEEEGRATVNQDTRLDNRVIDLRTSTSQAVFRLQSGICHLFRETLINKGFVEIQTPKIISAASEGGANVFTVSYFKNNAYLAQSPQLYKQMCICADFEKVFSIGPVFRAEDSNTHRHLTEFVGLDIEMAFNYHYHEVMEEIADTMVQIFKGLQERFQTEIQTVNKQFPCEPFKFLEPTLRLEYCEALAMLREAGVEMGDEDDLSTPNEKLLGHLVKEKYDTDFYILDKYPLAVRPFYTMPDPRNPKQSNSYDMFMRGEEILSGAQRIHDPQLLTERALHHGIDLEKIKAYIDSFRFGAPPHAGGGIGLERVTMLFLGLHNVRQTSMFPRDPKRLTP

native length PvAspRS (51-631), Plasmodium vivax aspartyl tRNA synthetase (enzyme)
stoichiometry N [1]: 2

Nc1nc(Cl)nc2c1ncn2[C@@H]1O[C@H](COS(=O)(=O)NC(=O)[C@@H](N)CC(=O)O)[C@@H](O)[C@H]1O [Asp-DACM, 2-chloro-5′-O-[N-(L-aspartyl)-sulfamoyl] adenosine]
X-ray crystal structure, 2.4 Å [2]: We solved the structure of PvAspRS with bound synthetic Asp-DACM
dTm (HsAspRS (1-501) [3]): synthetic Asp-DACM increased the Tm values of PfAspRS, PvAspRS and HsAspRS
dTm [4]: synthetic Asp-DACM increased the Tm values of PfAspRS, PvAspRS and HsAspRS
dTm [5]: synthetic Asp-DACM increased the Tm values of PfAspRS, PvAspRS and HsAspRS

Nc1ncnc2c1ncn2[C@@H]1O[C@H](COS(N)(=O)=O)[C@@H](O)[C@H]1O [AMS]
Tm [6]: 57.0 °C
Tm [7]: 59.5 °C

Nc1ncnc2c1ncn2[C@@H]1O[C@H](COP(=O)(O)OP(=O)(O)OP(=O)(O)O)[C@@H](O)[C@H]1O [ATP]
Kinase-Glo ATP consumption assay [8]: Addition of EctRNA substantively increased the level of ATP consumption
Kinase-Glo ATP consumption assay [9]: marked increase in ATP consumption in the presence of EctRNA
Kinase-Glo ATP consumption assay (HsAspRS (1-501) [10]): Addition of EctRNA substantively increased the level of ATP consumption
Kinase-Glo ATP consumption assay [11]: Addition of EctRNA substantively increased the level of ATP consumption

native length PfAspRS (49-626), Plasmodium falciparum cytoplasmic aspartyl tRNA synthetase (enzyme)
stoichiometry N [12]: 2
stoichiometry N [13]: 2

Nc1ncnc2c1ncn2[C@@H]1O[C@H](COP(=O)(O)OC(=O)[C@@H](N)CC(=O)O)[C@@H](O)[C@H]1O [Asp-AMP]
X-ray crystal structure, 2.1 Å [14]: We also solved the structure of PvAspRS with the natural intermediate, Asp-AMP

Nc1ncnc2c1ncn2[C@@H]1O[C@H](COS(=O)(=O)NC(=O)[C@@H](N)CC(=O)O)[C@@H](O)[C@H]1O [Asp-AMS, 5′-O-(N-L-aspartate)-sulfamoyl-adenosine]
X-ray crystal structure, 1.8 Å [15]: We also solved the structure of PvAspRS with bound synthetic Asp-AMS

Nc1nc(Cl)nc2c1ncn2[C@@H]1O[C@H](COS(N)(=O)=O)[C@@H](O)[C@H]1O [DACM, 5′-O-sulfamoyl-2-chloroadenosine]
ΔTm at 10 µM [16]: 19 °C

B1: full-length HsAspRS (1-501), human aspartyl tRNA synthetase, P14868-1 1-501 (enzyme)
chain: MPSASASRKSQEKPREIMDAAEDYAKERYGISSMIQSQEKPDRVLVRVRDLTIQKADEVVWVRARVHTSRAKGKQCFLVLRQQQFNVQALVAVGDHASKQMVKFAANINKESIVDVEGVVRKVNQKIGSCTQQDVELHVQKIYVISLAEPRLPLQLDDAVRPEAEGEEEGRATVNQDTRLDNRVIDLRTSTSQAVFRLQSGICHLFRETLINKGFVEIQTPKIISAASEGGANVFTVSYFKNNAYLAQSPQLYKQMCICADFEKVFSIGPVFRAEDSNTHRHLTEFVGLDIEMAFNYHYHEVMEEIADTMVQIFKGLQERFQTEIQTVNKQFPCEPFKFLEPTLRLEYCEALAMLREAGVEMGDEDDLSTPNEKLLGHLVKEKYDTDFYILDKYPLAVRPFYTMPDPRNPKQSNSYDMFMRGEEILSGAQRIHDPQLLTERALHHGIDLEKIKAYIDSFRFGAPPHAGGGIGLERVTMLFLGLHNVRQTSMFPRDPKRLTP
stoichiometry N [17]: 2
